The test system of data set [1] is IEC18 Rat Epithelial Cells (IEC18-S33Y). As to conditions: 17-20 h with compound, WST-1. The method, then:
Using the above assay system, IC50 and LD50 values were determined for the pyrimidotriazinedione compounds. IEC18-S33Y cells carrying a β-catenin firefly luciferase cassette and a constitutively active renilla luciferase cassette were seeded at 40,000 cells/well in 96-well tissue culture plates (BD Biosciences, Bedford, Mass.) in a total volume of 80 μL of tissue culture medium (Dulbecco's modified Eagle medium without Phenol-Red (Invitrogen, Carlsbad, Calif.) supplemented with 10% (v/v) fetal bovine serum (Hyclone, Logan, Utah)) and incubated for 24 h. […] Working solutions of the compounds were obtained by further diluting the stock solutions in tissue culture medium by at least 50-fold. Serial twofold dilutions of the working solutions of the compounds were added to the cells in a volume of 40 μL and the cells were incubated in the presence of the compounds for 17-20 h.
LD50 values of the pyrimidotriazinediones then were determined using a WST-1 colorimetric cell proliferation assay. A mixture containing 20 μL of medium and 10 μL of WST-1 reagent (available from Roche, Indianapolis, Ind.) was added to the cells and the cells were incubated for 1 h at 37° C., after which time absorption at 550 nm was measured using a microplate reader.

For data set [2], the system named is β-catenin/TCF complex. The data set can be described thus: cells. The format is cell-based.
The mark [3] stands for this setting: Rattus norvegicus, IEC18-S33Y cells, 17-20 h with compound, β-catenin-dependent firefly luciferase with Renilla control, read-out: IC50.

As usually defined, the IC50 is the concentration needed to halve the response being measured.

Read-outs that look alike come from different tables or passages of the source.

In the case of `Cn1nc(-c2ccc(F)cc2)nc2c(=O)n(C)c(=O)nc1-2` [Compound 5f, 3-(4-Fluorophenyl)-1,6-dimethylpyrimido[5,4-e][1,2,4]triazine-5,7(1H,6H)-dione], the LD50 in data set [1] amounted to 1.10 ± 0.01 µM. The IC50 in data set [2] (setting [3]) was 300 ± 70 nM.
For `CCc1nc2c(=O)n(C)c(=O)nc-2n(C)n1` [Compound 5c, 3-Ethyl-1,6-dimethylpyrimido[5,4-e][1,2,4]triazine-5,7(1H,6H)-dione] the same measures were 2.94 ± 10 µM and 1420 ± 250 nM.
With `Cn1nc(-c2ccc(Cl)cc2)[n+]([O-])c2c(=O)n(C)c(=O)nc1-2`, in data set [1], the LD50 stood at 2.01 ± 2.58 µM. For the same molecule, the IC50 in data set [2] (setting [3]) stood at 700 ± 150 nM.
Take `Cn1c(=O)c2nc(-c3ccccc3F)nnc2n(Cc2ccccc2)c1=O` [Compound 7d, 8-Benzyl-3-(2-fluorophenyl)-6-methylpyrimido[5,4-e][1,2,4]triazine-5,7(6H,8H)-dione]: the IC50 in data set [2] (setting [3]) was determined as 3600 ± 2250 nM.
With `Cc1ccc(-c2nc3c(=O)n(C)c(=O)nc-3n(CCO)n2)cc1` [Compound 8b, 1-(2-Hydroxyethyl)-6-methyl-3-(4-methylphenyl)pyrimido[5,4-e][1,2,4]triazine-5,7(1H,6H)-dione], in data set [1], the LD50 turned out to be 2.55 ± 21.76 µM. Also, the IC50 in data set [2] (setting [3]) was found to be 320 ± 230 nM.
For `Cn1nc(-c2ccc(Cl)cc2)nc2c(=O)n(C)c(=O)nc1-2` [Compound 5h, 3-(4-Chlorophenyl)-1,6-dimethylpyrimido[5,4-e][1,2,4]triazine-5,7(1H,6H)-dione] the same measures were 2.84 ± 0.80 µM and 1050 ± 290 nM.
For `Cn1nc(-c2cccc(Cl)c2)nc2c(=O)n(C)c(=O)nc1-2` [Compound 5i, 3-(3-Chlorophenyl)-1,6-dimethylpyrimido[5,4-e][1,2,4]triazine-5,7(1H,6H)-dione] the same measures were 23.88 ± 5.17 µM and 5030 ± 1180 nM.
For the molecule `CCN(CC)CCOc1ccc(-c2nnc3c(n2)c(=O)n(C)c(=O)n3Cc2cccc(F)c2)cc1` [Compound 10c, 3-(4-(2-(Diethylamino)ethoxy)phenyl)-8-(3-fluorobenzyl)-6-methylpyrimido[5,4-e][1,2,4]triazine-5,7(6H,8H)-dione], in data set [1], the LD50 worked out at 21.49 ± 10.42 µM. The IC50 in data set [2] (setting [3]) worked out at 23400 ± 2830 nM.
For `Cn1c(=O)nc2n(CCO)nc(-c3ccc(OCCN4CCCC4)cc3)nc-2c1=O` [Compound 8f, 1-(2-Hydroxyethyl)-6-methyl-3-(4-(2-(pyrrolidin-1-yl)ethoxy)phenyl)pyrimido[5,4-e][1,2,4]triazine-5,7(1H,6H)-dione] the same measures were 1.55 ± 0.22 µM and 1340 ± 150 nM.
Regarding `COc1ccc(-c2nc3c(=O)n(C)c(=O)nc-3n(CCO)n2)cc1` [Compound 8e, 1-(2-Hydroxyethyl)-3-(4-methoxyphenyl)-6-methylpyrimido[5,4-e][1,2,4]triazine-5,7(1H,6H)-5,7-dione], the LD50 in data set [1] was determined as 8.39 ± 10.29 µM. In addition, in data set [2] (IEC18-S33Y cells, 17-20 h with compound, β-catenin-dependent firefly luciferase with Renilla control, read-out: IC50), the IC50 amounted to 6070 ± 4910 nM.
On to `Cc1ccc(-c2nc3c(=O)n(C)c(=O)nc-3n(C)n2)cc1` [Compound 5e, 1,6-Dimethyl-3-(4-methylphenyl)pyrimido[5,4-e][1,2,4]triazine-5,7(1H,6H)-dione], for which, in data set [1], the LD50 was found to be 0.84 ± 0.25 µM. Also, the IC50 in data set [2] (setting [3]) turned out to be 680 ± 90 nM.
Take `Cn1nc(-c2ccccc2)nc2c(=O)n(C)c(=O)nc1-2` [Compound 5d, 1,6-Dimethyl-3-phenylpyrimido[5,4-e][1,2,4]triazine-5,7(1H,6H)-dione]: the LD50 in data set [1] is 1.39 ± 0.44 µM. The IC50 in data set [2] (setting [3]) was found to be 530 ± 100 nM.
On to `Cn1nc(-c2ccc(Cl)c(Cl)c2)nc2c(=O)n(C)c(=O)nc1-2` [Compound 5j, 3-(3,4-Dichlorophenyl)-1,6-dimethylpyrimido[5,4-e][1,2,4]triazine-5,7(1H,6H)-dione], for which the LD50 in data set [1] was determined as 30.1 ± 17.54 µM. It took 9320 ± 7440 nM to reach half-maximal inhibition in data set [2] (Rattus norvegicus) (IC50).
In the case of `Cn1c(=O)c2nc(-c3ccc(F)cc3)nnc2n(Cc2ccc(C(C)(C)C)cc2)c1=O` [Compound 7h, 8-(4-tert-Butylbenzyl)-3-(4-fluorophenyl)-6-methylpyrimido[5,4-e][1,2,4]triazine-5,7(6H,8H)-dione], the IC50 in data set [2] (setting [3]) amounted to 330 ± 10 nM.

The record behind these values is US20110166144A1, “Pyrimidotriazinediones and Pyrimidopyrimidinediones and Methods of Using the Same” (THE REGENTS OF THE UNIVERSITY OF MICHIGAN, priority 2008, published 2011).
